Drawing on patent US11021481B2, “Substituted isoindolin-1-ones and 2,3-dihydro-1h-pyrrolo[3,4-c]pyridin-1-ones as HPK1 antagonists” (Nimbus Saturn, Inc., priority 2019, dated 2021), this text covers IC50 for 31 molecules.

pIC50: −log10 of the molar value. Where a name gives a salt, the structure may show the parent alone.

Sequence of HPK1 (Q92918 whole entry): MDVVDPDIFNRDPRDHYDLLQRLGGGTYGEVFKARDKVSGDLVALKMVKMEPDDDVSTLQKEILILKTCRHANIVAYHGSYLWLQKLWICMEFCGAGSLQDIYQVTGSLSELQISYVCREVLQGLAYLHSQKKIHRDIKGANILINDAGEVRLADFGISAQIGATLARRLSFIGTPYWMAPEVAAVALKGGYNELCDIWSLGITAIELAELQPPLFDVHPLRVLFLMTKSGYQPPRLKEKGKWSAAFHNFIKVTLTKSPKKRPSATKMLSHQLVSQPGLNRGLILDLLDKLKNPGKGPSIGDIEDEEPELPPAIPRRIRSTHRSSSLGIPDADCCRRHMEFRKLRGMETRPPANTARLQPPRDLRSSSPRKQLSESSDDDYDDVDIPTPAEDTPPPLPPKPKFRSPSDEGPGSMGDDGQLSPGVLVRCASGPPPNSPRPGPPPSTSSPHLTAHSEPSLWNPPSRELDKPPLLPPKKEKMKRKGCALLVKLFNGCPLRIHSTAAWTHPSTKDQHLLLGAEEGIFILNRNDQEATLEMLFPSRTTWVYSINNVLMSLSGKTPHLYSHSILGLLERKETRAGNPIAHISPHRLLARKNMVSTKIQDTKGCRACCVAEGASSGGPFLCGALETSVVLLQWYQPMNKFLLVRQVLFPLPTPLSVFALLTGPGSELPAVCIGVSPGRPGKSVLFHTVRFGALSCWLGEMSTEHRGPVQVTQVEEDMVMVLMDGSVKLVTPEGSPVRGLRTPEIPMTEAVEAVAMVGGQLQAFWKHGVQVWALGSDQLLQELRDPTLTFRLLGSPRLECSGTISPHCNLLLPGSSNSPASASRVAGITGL

The experiment concerns the target HPK1 (Homo sapiens (Human), UniProt Q92918). The experiment is described as follows: HPK1 biochemical enzyme assay (microfluidic mobility shift assay). The following applies: 1.5 nM HPK1, ATP 1 mM final, 30 min preincubation, 60 min at RT, Caliper EZ Reader; read-out: HPK1 1000UMATP caliper IC50. A digest of the protocol:
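Mobility shift readout of HPK1 activity after a 60 min RT reaction with 1 mM ATP, 1 μM substrate and 5 mM MgCl2. Enzyme/substrate mix was first exposed to compounds for 30 min, using ten-point curves topping at 3 μM final.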
On to `CN(C)CC1CN(c2ccc(Nc3ccc(-c4cnc5cc(F)ccn45)c4c3C(=O)NC4)nc2)CCO1` (stereo not shown) [I-383, 7-((5-(2-((dimethylamino)-methyl)mor pholino)pyridin-2-yl)amino)-4-(7-fluoroimidazo [1,2-a]pyridin-3-yl)isoindolin-1-one], for which the negative logarithm of the IC50 (pIC50) is > 7.00.

On to `O=C1NCc2c(-c3cccc4ccnn34)ncc(Nc3ccc(N4CCC(O)CC4)cn3)c21` [I-368, 7-((5-(4-hydroxypiperidin-1-yl)pyridin-2-yl)amino)-4-(pyrazolo[1,5-a]pyridin-7-yl)-2,3-dihydro-1H-pyrrolo[3,4-c]pyridin-1-one], for which the negative logarithm of the IC50 (pIC50) is < 6.00.

As to `O=C1NCc2c(-c3cnc4cc(F)ccn34)ccc(Nc3ccc(N4CC(O)CCC45CC5)cn3)c21` (stereo not shown) [I-395, 4-(7-fluoroimidazo [1,2-a]pyridin-3-yl)-7-((5-(6-hydroxy-4-azaspiro[2.5]octan-4-yl)pyridin-2-yl)amino)isoin-dolin-1-one], the negative logarithm of the IC50 (pIC50) was > 7.00.

On to `CCN(CC)Cc1nc(Nc2ccc(-c3cnc4cc(F)ccn34)c3c2C(=O)NC3)ccc1C1CCOC1` (stereo not shown) [I-504, 7-[[6-(diethylaminomethyl)-5-tetrahydrofuran-3-yl-2-pyridyl]amino]-4-(7-fluoroimidazo [1,2-a]pyridin-3-yl)isoindolin-1-one], for which the pIC50 was > 7.00.

Take “4-(1-methyl- 1H-indol-4- yl)-7-((5- (piperazin-1- yl)pyridin-2- yl)amino)-2,3- dihydro-1H- pyrrolo[3,4- c]pyridin-1-one [I-266]”: the negative-log IC50 (pIC50) was > 7.00.

For `CC(C)NCc1nc(Nc2ccc(-c3cnc4cc(F)ccn34)c3c2C(=O)NC3)ccc1C1CCOCC1` [I-847, 4-(7-fluoroimidazo [1,2-a]pyridin-3-yl)-7-[[6-[(isopropylamino)-methyl]-5-tetrahydropyran-4-yl-2-pyridyl]amino] isoindolin-1-one Formic acid salt], the negative-log IC50 (pIC50) is > 7.00.

As for `Cn1ccc2c(-c3ccc(Nc4ccc(N5CCC(O)CC5)cn4)c4c3CNC4=O)ncnc21` [I-144, 7-[[5-(4-hydroxy-1-piperidyl)-2-pyridyl]amino]-4-(7-methylpyrrolo [2,3-d]pyrimidin-4-yl)isoindolin-1-one], the pIC50 is > 7.00.

`COc1c(F)ccn2c(-c3ccc(Nc4ccc(N5CCC(O)CC5)cn4)c4c3CNC4=O)cnc12` [I-242, 4-(7-fluoro-8-methoxy-imidazo[1,2-a]pyridin-3-yl)-7-[[5-(4-hydroxy-1-piperidyl)-2-pyridyl]amino] isoindolin-1-one]: the negative logarithm of the IC50 (pIC50) was > 7.00.

As for `Cc1cccc2c(-c3ccc(Nc4ccc(N5CCN(C)CC5)cn4)c4c3CNC4=O)cnn12` [I-69, 7-[[5-(4-methylpiperazin-1-yl)-2-pyridyl]amino]-4-(7-methylpyrazolo [1,5-a]pyridin-3-yl)isoindolin-1-one], the pIC50 was > 7.00.

On to `O=C1NCc2c(-c3cnc4cc(F)ccn34)ccc(Nc3ccc([C@H]4CCOC4)c(CN4CCC[C@@H]4CO)n3)c21` [I-825, 4-(7-fluoroimidazo [1,2-a]pyridin-3-yl)-7-((6-(((R)-2-(hydroxymeth-yl)pyrrolidin-1-yl]methyl)-5-((R)-THF-3-yl)pyridin-2-yl)amino)isoin-dolin-1-one], for which the pIC50 is > 7.00.

On to `CCNC(=O)c1ccc(Nc2ccc(-c3cnc4cc(F)ccn34)c3c2C(=O)NC3)nc1CN(C)C` [I-791, 2-((dimethylamino)-methyl)-N-ethyl-6-((7-(7-fluoroimidazo [1,2-a]pyridin-3-yl)-3-oxoisoindolin-4-yl)amino)nico-tinamide], for which the pIC50 was > 7.00.

Regarding `O=C1NCc2c(-c3cnc4cc(F)ccn34)ccc(Nc3ccc(N4CCOCC45CC5)cn3)c21` [I-335, 7-((5-(7-oxa-4-azaspiro[2.5]octan-4-yl)pyridin-2-yl)amino)-4-(7-fluoroimidazo [1,2-a]pyridin-3-yl)isoindolin-1-one], the negative logarithm of the IC50 (pIC50) is > 7.00.

For `CC(C)(O)[C@H]1CCCN(c2ccc(Nc3cnc(-c4cnc5ccccn45)c4c3C(=O)NC4)nc2)C1` [I-210, 7-[[5-[(3S)-3-(1-hydroxy-1-methyl-ethyl)-1-piperipyl]-2-pyridyl]-amino]-4-imidazo[1,2-a]pyridin-3-yl-2.3-dihydropyrrolo [3,4-c]pyridin-1-one], the pIC50 is > 7.00.

On to `Cc1ccn2c(-c3ccc(Nc4ccc(N5CCO[C@@H](C(C)(C)O)C5)cn4)c4c3CNC4=O)cnc2c1F` [I-487, 4-(8-fluoro-7-methyl-imidazo[1,2-a]pyridin-3-yl)-7-[[5-[(2R)-2-(1-hydroxy-1-methyl-ethyl)morpholin-4-yl]-2-pyridyl]amino]isoindolin-1-one], for which the negative logarithm of the IC50 (pIC50) was > 7.00.

As to `COc1cccn2c(-c3ncc(Nc4ccc(N5CCC[C@H](C(C)(C)O)C5)cn4)c4c3CNC4=O)cnc12` [I-461, 7-[[5-[(3S)-3-(1-hydroxy-1-methylethyl)-1-piperipyl]-2-pyridyl]amino]-4-(8-methoxyimi-dazo[1,2-a]pyridin-3-yl)-2,3-dihydro-pyrrolo[3,4-c]pyridin-1-one], the pIC50 is > 7.00.

On to `C[C@H](c1nc(Nc2ccc(-c3cnc4cc(F)ccn34)c3c2C(=O)NC3)ccc1[C@H]1CCOC1)N(C)C` [I-817, 7-((6-((R)-1-(dimethylami-no)ethyl)-5-((R)-THF-3-yl)pyridin-2-yl)amino)-4-(7-fluoroimidazo [1,2-a]pyridin-3-yl)isoindolin-1-one], for which the negative-log IC50 (pIC50) was > 7.00.

As to `CN1CC(c2ccn3c(-c4ccc(Nc5ccc(N6CCC(O)CC6)cn5)c5c4CNC5=O)cnc3c2)C1` [I-411, 7-((5-(4-hydroxy-piperidin-1-yl)pyridin-2-yl)amino)-4-(7-(1-methylazetidin-3-yl)imidazo[1,2-a]pyridin-3-yl)isoindolin-1-one], the pIC50 was > 7.00.

For the molecule `CN(C)C(C)(C)c1nc(Nc2ccc(-c3cnc4cc(F)ccn34)c3c2C(=O)NC3)ccc1[C@H]1CCOC1` [I-832, (R)-7-((6-(2-(dimethylami-no)propan-2-yl)-5-(THF-3-yl)pyridin-2-yl)amino)-4-(7-fluoroimidazo [1,2-a]pyridin-3-yl)isoindolin-1-one], the pIC50 is 6.00 to 7.00.

For `O=C1NCc2c(-c3cnc4c(F)cccn34)ncc(Nc3ccc(N4CC[C@H](F)[C@@H](O)C4)cn3)c21` [I-653, 7-((5-((3S.4S)-4-fluoro-3-liydroxy-piperidin-1-yl)pyridin-2-yl)amino)-4-(8-fluoroimidazo [1,2-a]pyridin-3-yl)-2,3-dihydro-1H-pyrrolo[3,4-c]pyridin-1-one], the pIC50 is > 7.00.

As for `CN1CCN(c2ccc(Nc3ccc(-c4cnc5c(C#N)cccn45)c4c3C(=O)NC4)nc2)CC1` [I-74, 3-[7-[[5-(4-methylpiperazin-1-yl)-2-pyridyl]amino]-1-oxo-isoindolin-4-yl]imidazo[1,2-a]pyridine-8-carbonitrile], the pIC50 is > 7.00.

With `CC(C)([C@H]1CN(c2ccc(Nc3ccc(-c4cnc5cc(F)ccn45)c4c3C(=O)NC4)nc2)CCO1)N1CC(O)C1` [I-698], the pIC50 was > 7.00.

For `Cc1ccn2c(-c3ccc(Nc4ccc(N5CC[C@H](F)[C@@H](O)C5)cn4)c4c3CNC4=O)cnc2c1F` [I-584, 7-((5-((3S.4S)-4-fluoro-3-hydroxypiperidin-1-yl)pyridin-2-yl)amino)-4-(8-fluoro-7-methylimidazo [1,2-a]pyridin-3-yl)isoindolin-1-one], the pIC50 is > 7.00.

For the molecule `O=C1NCc2c(-c3cnc4cc(OCCO)ccn34)ccc(Nc3ccc(N4CCOCC4)cn3)c21` [I-201, 4-[7-(2-hydroxyeth-oxy)imidazo[1,2-a]pyridin-3-yl]-7-[(5-morpholino-2-pyridyl)amino] isoindolin-1-one], the pIC50 was > 7.00.

With `O=C1NCc2c(-c3cnc4cc(F)ccn34)ccc(Nc3ccc(N4CCC(CO)CC4)cn3)c21` [I-204, 4-(7-fluoroimidazo [1,2-a]pyridin-3-yl)-7-[[5-[4-(hydroxymeth-yl]-1-piperipyl]-2-pyripyl]-amino]isoin-dolin-1-one], the negative logarithm of the IC50 (pIC50) is > 7.00.

`Cn1ccc2c(-c3ncc(Nc4ccc(N5CCC[C@](O)(CN6CCOCC6)C5)cn4)c4c3CNC4=O)ccnc21` (single isomer, unassigned) [I-674]: the negative-log IC50 (pIC50) was > 7.00.

As for `CCNC(=O)c1ccn2c(-c3ccc(Nc4ccc(N5CCOCC5)cn4)c4c3CNC4=O)cnc2c1` [I-207, N-ethyl-3-[7-[(5-morpholino-2-pyridyl)-amino]-1-oxo-isoindolin-4-yl]imidazo[1,2-a]pyridine-7-carboxamide], the pIC50 was 6.00 to 7.00.

Regarding `Cc1cc(Nc2cnc(-c3ccnc4c3ccn4C)c3c2C(=O)NC3)nc(N2CC[C@@H]3CNC[C@@H]32)c1` [I-642, 7-((6-((3aR,6aR)-hcxahydropyrr-olo[3,4-b]pyrrol-1(2H)-yl)-4-methylpyridin-2-yl)amino)-4-(1-methyl-1H-pyrrolo[2,3-b]pyridin-4-yl)-2,3-dihydro-1H-pyrrolo[3,4-c]pyridin-1-one], the pIC50 was 6.00 to 7.00.

For the molecule `CN(C)CCc1nc(Nc2ccc(-c3cnc4cc(F)ccn34)c3c2C(=O)NC3)ccc1N1CCOCC1` [I-840, 7-((6-(2-(dimethylami-no)ethyl)-5-morpholinopyridin-2-yl)amino)-4-(7-fluoroimidazo [1,2-a]pyridin-3-yl)isoindolin-1-one], the negative logarithm of the IC50 (pIC50) is > 7.00.

Consider `Cc1cccn2c(-c3ccc(Nc4ccc(N5CCN(C)CC5)cn4)c4c3CNC4=O)cnc12` [I-52, 4-(8-methylimidazo [1,2-a]pyridin-3-yl-)-7-[[5-(4-methylpiperazin-1-yl)-2-pyridyl]amino] isoindolin-1-1-one], for which the pIC50 was > 7.00.

For the molecule `CN1CCN(c2ccc(Nc3ccc(-c4cn(C)c5ncccc45)c4c3C(=O)NC4)nc2)CC1` [I-22, 7-[[5-(4-methylpiperazin-1-yl)-2-pyridyl]amino]-4-(1-methylpyrrolo [2,3-b]pyridin-3-yl)-isoindolin-1-one], the pIC50 is 6.00 to 7.00.

With `O=C1NCc2c(-c3cnc4cnccn34)ccc(Nc3ccc(N4CCCOCC4)cn3)c21` [I-300, 7-((5-(1,4-oxazepan-4-yl)pyridin-2-yl)amino)-4-(imidazo[1,2-a]pyrazin-3-yl)isoindolin-1-one], the pIC50 was > 7.00.

By pIC50 is commonly meant −log10 of the IC50, conventionally taken in molar units.
